Target: T1, HCMV pUL50-HA + pUL53-Flag (Human cytomegalovirus, UniProt P16791)
T1 construct: expressed in transfected cells; host or cells: HeLa
Test: Confocal imaging of core NEC localization in cotransfected HeLa cells, HCMV
Assay type: cell-based
Conditions: 4 µM, 3 d p.t.
Protocol: HFF or HFF-UL50 cells, either Dox-induced or uninduced, were seeded in 6-well plates with a density of 2 × 10^5 cells per well, grown on coverslips and infected with HCMV AD169 or AD169 ∆UL50-ΣUL53. For infection experiments with the recombinant virus, different Shield-1 and Dox conditions were analyzed. Antivirals were added post-infection as described for the experiments. For transfection experiments, HeLa cells were seeded on coverslips in 6-well plates with a density of 3.25 × 10^5 cells per well for cotransfection with the indicated NEC expression plasmids (HSV-1 HA-UL34 + Flag-UL31, HCMV pUL50-HA + pUL53-Flag and EBV HA-BFRF1 + Flag-BFLF2). At indicated time points after virus infection, or 3 days post-transfection, cells were fixed, applied for IF staining as described previously and analyzed using a TCS SP5 confocal laser-scanning microscope with Leica LAS AF software (Leica Microsystems, Wetzlar, Germany). […] The device features a Leica photomultiplier tube (PMT) and a hybrid detector (HyD). Images were further processed using Photoshop CS5 (Adobe Inc., San José, CA, USA). […] Microscopic counting was performed for quantitation of colocalization patterns of two different proteins, as achieved by counting 50 cells per biological triplicate. […]

T1 sequence (P16791 whole entry): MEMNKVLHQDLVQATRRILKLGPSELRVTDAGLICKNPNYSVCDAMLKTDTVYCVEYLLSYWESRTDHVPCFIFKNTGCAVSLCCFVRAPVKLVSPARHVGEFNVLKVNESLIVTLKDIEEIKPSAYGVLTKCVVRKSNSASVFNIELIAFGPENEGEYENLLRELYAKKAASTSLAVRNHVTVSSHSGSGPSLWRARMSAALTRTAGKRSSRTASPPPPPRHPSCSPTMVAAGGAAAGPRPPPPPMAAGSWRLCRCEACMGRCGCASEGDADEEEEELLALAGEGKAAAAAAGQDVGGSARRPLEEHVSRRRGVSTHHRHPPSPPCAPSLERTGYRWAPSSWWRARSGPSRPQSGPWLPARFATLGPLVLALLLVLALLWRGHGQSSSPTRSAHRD

For `C=CC(=O)N1CCC[C@@H](n2nc(-c3ccc(Oc4ccccc4)cc3)c3c(N)ncnc32)C1` [ibrutinib], the “core NEC nuclear rim localization (in words)” value was “predominant dot-like aggregation and speckle formation”.
